Among the test systems are NCI-H23; OVCAR-4; M19-MEL; A498; U-251; HOP-62; 786-0; HCC 2998; OVCAR-8; SK-OV-3; HL-60; NCI-H226; HCT-15; CCRF-CEM; SNB-75; SN12C; A549; RXF 393; Hs-578T; NCI/ADR-RES.
Assay in all cases: inhibition of tumour cell growth, NCI panel, 48 h

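The compound was tested at five concentrations on cells cultured in 96-well plates, with a 48-hour exposure period. Here, GI50 denotes the concentration required for 50% inhibition of growth.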 The source made the active and inactive calls. Cut-off read from the data, not from the text of the source: active = GI50 up to about 1.1 µM and inactive = higher.

Regarding `Cc1cccc(NC(=O)c2cc3cc(/N=N/c4ccccc4Cl)ccc3oc2=O)c1`, the GI50 with NCI-H23 was 19.7 µM (inactive); with OVCAR-4, 29.4 µM (inactive); in the assay with M19-MEL, 32.1 µM (inactive); in the assay with A498 it was > 100 µM (inactive); with U-251, 26.5 µM (inactive); in the assay on HOP-62, 46.2 µM (inactive). Moreover, the GI50 with 786-0 is 26.9 µM (inactive); with HCC 2998, 26.1 µM (inactive); in the assay with OVCAR-8, 27 µM (inactive); with SK-OV-3, 88.7 µM (inactive); in the assay with HL-60, > 100 µM (inactive); in the assay with NCI-H226, 13 µM (inactive). Further, the GI50 with HCT-15 was 27.4 µM; in the assay on CCRF-CEM it was 14 µM (inactive); in the assay with SNB-75 it was 60.8 µM (inactive); in the assay with SN12C, 30.2 µM (inactive); in the assay with A549, 77.3 µM (inactive); in the assay with RXF 393, 33.1 µM (inactive).
As to `COC1C(OC(=O)/C=C/C=C/C=C/C=C/C(=O)O)CCC2(CO2)C1C1(C)OC1CC=C(C)C` (stereo unspecified), the GI50 was 25 µM (inactive) with NCI-H23; 21.1 µM (inactive) in the assay with OVCAR-4; 18.7 µM (inactive) in the assay with M19-MEL; > 100 µM (inactive) in the assay on A498; 18.5 µM (inactive) in the assay with U-251; 62.1 µM (inactive) in the assay with HOP-62. In addition, the GI50 is 20.5 µM (inactive) in the assay with 786-0; 26 µM (inactive) in the assay on HCC 2998; 29.3 µM (inactive) with OVCAR-8; 40.2 µM (inactive) with Hs-578T; > 59.6 µM (inactive) with SK-OV-3; 16.4 µM (inactive) in the assay on HL-60. Also, the GI50 is 42.8 µM (inactive) in the assay with NCI-H226; 24.2 µM with HCT-15; > 63.8 µM (inactive) in the assay on NCI/ADR-RES; 21.4 µM (inactive) with CCRF-CEM; 25.3 µM (inactive) in the assay with SNB-75; 28.1 µM (inactive) in the assay on SN12C. Also, the GI50 is 18.5 µM (inactive) in the assay on A549 and 48.8 µM (inactive) in the assay on RXF 393.
Take `CC1=C(N2CC2)C(=O)C(C)=C(N2CC2)C1=O`: the GI50 in the assay on NCI-H23 was 0.0412 µM (active); in the assay with OVCAR-4 it was 0.283 µM (active); with M19-MEL, 0.229 µM (active); with A498, 0.178 µM (active); with U-251, 0.152 µM (active); with HOP-62, 0.102 µM (active). Further, the GI50 is 0.0702 µM (active) with 786-0; 0.161 µM (active) in the assay with HCC 2998; 0.188 µM (active) in the assay on OVCAR-8; 0.933 µM (active) in the assay with Hs-578T; 0.31 µM (active) in the assay with SK-OV-3; 0.0206 µM (active) with HL-60. Also, the GI50 is 0.309 µM (active) with NCI-H226; 0.196 µM in the assay with HCT-15; 0.0221 µM (active) in the assay with NCI/ADR-RES; 0.0434 µM (active) in the assay on CCRF-CEM; 0.309 µM (active) in the assay with SNB-75; 0.113 µM (active) in the assay with SN12C. The results for the GI50 in the assay on A549 and in the assay with RXF 393 were 0.112 µM (active) and 0.151 µM (active), respectively.
As for `Cn1c(=O)nc2n(-c3ccc(F)c(F)c3)c3ccccc3nc-2c1=O`, the GI50 was 10.8 µM (inactive) in the assay with NCI-H23; 8.83 µM (inactive) in the assay on OVCAR-4; 1.76 µM (inactive) with M19-MEL; 42.9 µM (inactive) with A498; 14.7 µM (inactive) in the assay on U-251; 44.2 µM (inactive) with HOP-62. For the same molecule, the GI50 in the assay with 786-0 was 32.7 µM (inactive); with HCC 2998 it was 4.89 µM (inactive); in the assay with OVCAR-8 it was 13.2 µM (inactive); in the assay on SK-OV-3, > 100 µM (inactive); in the assay on HL-60 it was 10.6 µM (inactive); in the assay with NCI-H226, 30.3 µM (inactive). Besides, the GI50 was 7.33 µM with HCT-15; 14.8 µM (inactive) with CCRF-CEM; 23.3 µM (inactive) with SNB-75; 17.6 µM (inactive) in the assay with SN12C; 15.9 µM (inactive) in the assay on A549; 28.2 µM (inactive) with RXF 393.

(Values after ChEMBL document CHEMBL1201862, “PubChem BioAssay data set” (2004).)
